Test results from patent publication US10125112B2, “Modulators of the relaxin receptor 1” (The United States of America, as Represented by the …, priority 2012, dated 2018).
≈ marks a conversion by molar mass, not a printed value. Like-named read-outs stand apart in the source and are kept apart here. Values belong to the molecule of their own block, whether it stands above or below them.

Legend:
[1] = tested on: cAMP in THP-1 cells; test: cyclic AMP assay in THP-1 cells; assay type: cell-based; conditions: Homo sapiens
Procedure: This Example illustrates the cyclic AMP assay in THP-1 cells. THP-1 cells were propagated in RPMI-1640 supplemented with 20% FBS, 0.05 mM β-mercaptoethanol, 100 U/mL penicillin and 100 μg/mL streptomycin at 37° C. in 5% CO2. Before assaying for cAMP response, cells were serum starved in RPMI-1640 supplemented with 0.05 mM (3-mercaptoethanol, 100 U/mL penicillin and 100 μg/mL streptomycin at 37° C. in 5% CO2 for 16 hrs. For 384-well format assays, cells were seeded as 30,000 cells/well in 30 μL/well media with a MultiDrop Combi dispenser (Thermo Scientific, Waltham, Mass.). Subsequently, 2 μL/well of 1.6 mM Ro 20-1724 and 160 uM forskolin in PBS+ (DPBS, 1 mM CaCl2, 0.5 mM MgCl2, 0.05% BSA, 0.005% Tween 20) was dispensed using a BioRAPTR FRD dispenser (Beckman Coulter, Brea, Calif.). Immediately after, 0.25 μL/well of compound solutions in DMSO was dispensed with CyBi-well dispenser (CyBio, Jena, Germany). The cells were allowed to be stimulated with compounds for 30 min at 37° C. in 5% CO2, after which, 8 μL/well of each HTRF cAMP HiRange kit (CisBio, Bedford, Mass.) detection reagent was dispensed with a BioRAPTR FRD dispenser. The detection reagents were diluted as such: K-α-cAMP antibody at 1:20 and cAMP-d2 at 1:18 in HTRF lysis buffer (supplied by the assay kit). The plates were incubated for 30 min at room temperature before the signal was read on an Envision plate reader (PerkinElmer, Waltham, Mass.).

[2] = tested on: VEGF gene expression in THP1 cells; test: VEGF gene expression in THP1 cells (qRT-PCR); assay type: cell-based, human; conditions: 2 hours treatment, normalized to GAPDH
From the text: This example illustrates the activation of VEGF expression in THP1 cells by several embodiments of the disclosure.
THP1 cells (human acute monocytic leukemia cell line) were used to analyze the stimulation of VEGF gene expression after treatment with relaxin or compounds. The VEGF stimulation in these cultured endometrial cells is a well-established property of relaxin.^19 This effect is most probably responsible for the observed angiogenic and neovascularization properties of relaxin in various settings.^20 400,000 THP1 cells (0.4 mL at 1×10^6 cells/mL) in test media (RPMI-1640 without phenol red, 0.5% FBS, Ix Pen/Strep, 0.05 mM of 2-mercaptoethanol) were seeded in each well on a 24-well plate. After 24 hours incubation at 37° C., 5% CO2, relaxin or compounds were added for 2 hours. […] Quantitative real time RT-PCR for VEGF and GAPDH gene expression was done using a Roche LightCycler 480 (Roche Diagnostics, Indianapolis, Ind.) with the appropriate set of primers and probes spanning different exons. The relative fold change in VEGF mRNA level was calculated by the comparative Ct (2-ΔΔ^Ct) method using GAPDH expression for normalization of RNA. […]

[3] = biological target: T1, RXFP1 (Homo sapiens, UniProt Q9HBX9); test: RXFP1 cAMP assay in HEK293-RXFP1 cells (HTRF); assay type: cell-based
T1 construct: expressed in transfected cells
T1 sequence (Q9HBX9 1-757): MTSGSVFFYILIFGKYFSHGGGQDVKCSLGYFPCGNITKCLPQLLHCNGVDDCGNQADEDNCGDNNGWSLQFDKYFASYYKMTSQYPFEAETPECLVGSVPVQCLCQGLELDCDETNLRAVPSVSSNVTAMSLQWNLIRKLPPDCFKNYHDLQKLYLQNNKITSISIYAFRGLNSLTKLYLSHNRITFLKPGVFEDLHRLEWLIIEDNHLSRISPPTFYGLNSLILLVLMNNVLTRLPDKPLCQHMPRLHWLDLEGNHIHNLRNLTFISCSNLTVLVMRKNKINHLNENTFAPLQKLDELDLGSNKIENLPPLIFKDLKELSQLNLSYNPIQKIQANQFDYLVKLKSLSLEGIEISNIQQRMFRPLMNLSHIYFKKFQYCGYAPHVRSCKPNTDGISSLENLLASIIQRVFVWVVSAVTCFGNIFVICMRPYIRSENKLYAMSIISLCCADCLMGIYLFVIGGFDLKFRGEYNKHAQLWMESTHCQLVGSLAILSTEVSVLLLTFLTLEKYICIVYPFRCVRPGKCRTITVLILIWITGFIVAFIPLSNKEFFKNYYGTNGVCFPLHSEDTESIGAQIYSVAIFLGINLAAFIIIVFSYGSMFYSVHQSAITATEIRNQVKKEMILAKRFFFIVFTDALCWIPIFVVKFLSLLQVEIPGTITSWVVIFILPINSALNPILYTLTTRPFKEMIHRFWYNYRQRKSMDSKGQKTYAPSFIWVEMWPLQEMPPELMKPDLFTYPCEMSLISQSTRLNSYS
Procedure: The RXFP1 receptor couples to the Gs protein, and activation of the receptor results in stimulation of cAMP production. […] The TR-FRET between the K-α-cAMP and cAMP-d2 is disrupted by cAMP in the cell lysates, thus allowing TR-FRET detection in a homogenous format that is suitable for HTS. […] The primary screen was carried out in 1536-well format, however, because of a more robust signal to background ratio, all subsequent follow-up experiments were carried out in 384-well format.
For the primary screen, HEK293-RXFP1 cells were seeded at 2,000 cells/well in 3 μL/well media with a MultiDrop Combi dispenser (Thermo Scientific, Logan, Utah), and allowed to attach overnight at 37° C., 5% CO2. […] The cells were allowed to be stimulated with the compounds for 30 minutes at 37° C., 5% CO2, after which, 1 μL/well of each HTRF detection reagent was dispensed with a BioRAPTR FRD dispenser. The detection reagents were diluted before addition as follows: K-α-cAMP antibody at 1:20 and cAMP-d2 at 1:18 in HTRF lysis buffer (supplied by the assay kit). The plates were incubated for 30 minute at room temperature, and then the signal was read on a ViewLux plate reader (PerkinElmer, Waltham, Mass.).
The assay was run according to the following protocol:
Max Response indicates what the maximal amount of functional activity induced by the compound is, as a percentage of the maximal receptor activation induced by high concentrations of forskolin.

[4] = biological target: T2, RXFP2 (Homo sapiens, UniProt Q8WXD0); test: RXFP2 cAMP assay in HEK293-RXFP2 cells; assay type: cell-based
T2 construct: expressed in transfected cells
Procedure: HEK293 cells stably transfected with RXFP2, the cognate receptor for another relaxin family peptide, insulin-like 3, (HEK293-RXFP2) was used to test compound specificity towards the RXFP1 receptor. For this assay, cells were seeded at 8,000 cells/well in 30 µL/well of media with a MultiDrop Combi dispenser (Thermo Scientific), and allowed to attach overnight at 37° C., 5% CO2. Next, 2 µL/well of 1.6 mM Ro 20-1724 solution in PBS+(DPBS, 1 mM CaCl2, 0.5 mM MgCl2, 0.05% BSA, 0.005% Tween 20) were dispensed using a BioRAPTR FRD dispenser (Beckman Coulter, Brea, Calif.), followed addition of 0.25 μL/well of compound solution in DMSO with CyBi-well dispenser (CyBio, Jena, Germany). The cells were allowed to be stimulated with the compounds for 30 minutes at 37° C., 5% CO2, after which, 8 μL/well of each HTRF detection reagent (diluted according to assay kit directions in HTRF lysis buffer) was dispensed with a BioRAPTR FRD dispenser. The plates were incubated for 30 minute at 37° C., and then the signal was read on a ViewLux plate reader (PerkinElmer, Waltham, Mass.).

[5] = PBS solubility; assay type: physicochemical; conditions: aqueous buffer
[6] = 0.5 h, THP-1 cells, cAMP HTRF, with Ro 20-1724 and forskolin, 30 min, read-out: EC50
[7] = percentage of the maximal receptor activation induced by high concentrations of forskolin, Tables 1-7, read-out: Max Response
[8] = read-out: RXFP1 AC50 (μM, Max. Resp.): Max. Resp.
[9] = HEK293-RXFP1 cells, cAMP HTRF, with Ro 20-1724, Tables 1-7, read-out: RXFP1 AC50

T2 sequence (Q8WXD0 whole entry, species assumed): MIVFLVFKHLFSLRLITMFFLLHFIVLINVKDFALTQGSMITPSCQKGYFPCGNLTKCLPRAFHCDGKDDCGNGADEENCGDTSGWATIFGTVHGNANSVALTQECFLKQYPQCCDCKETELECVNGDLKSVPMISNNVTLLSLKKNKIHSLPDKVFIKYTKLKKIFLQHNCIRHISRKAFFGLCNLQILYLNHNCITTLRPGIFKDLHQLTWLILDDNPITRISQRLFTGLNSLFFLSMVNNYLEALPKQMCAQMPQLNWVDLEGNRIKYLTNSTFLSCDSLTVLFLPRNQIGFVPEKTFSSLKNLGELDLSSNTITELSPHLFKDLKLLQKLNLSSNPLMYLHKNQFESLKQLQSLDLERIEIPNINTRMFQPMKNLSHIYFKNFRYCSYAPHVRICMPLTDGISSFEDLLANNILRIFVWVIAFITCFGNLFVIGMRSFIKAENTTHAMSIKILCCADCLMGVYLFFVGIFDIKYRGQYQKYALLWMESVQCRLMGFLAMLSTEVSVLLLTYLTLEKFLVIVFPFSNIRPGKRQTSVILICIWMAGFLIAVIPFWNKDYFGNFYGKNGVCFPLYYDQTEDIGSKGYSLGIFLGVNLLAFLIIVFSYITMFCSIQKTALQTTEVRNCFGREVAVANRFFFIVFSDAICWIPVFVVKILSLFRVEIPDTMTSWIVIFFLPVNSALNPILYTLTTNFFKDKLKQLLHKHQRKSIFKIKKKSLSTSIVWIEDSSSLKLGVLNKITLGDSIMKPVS

Structure (SMILES): CCOc1ccccc1C(=O)Nc1ccccc1C(=O)Nc1cccc(C(F)(F)F)c1 [Compound 99, 2-Ethoxy-N-(2-((3-(trifluoromethyl)phenyl)carbamoyl)phenyl)benzamide]
- EC50 [1, 6]: 471 nM
- Relative VEGF gene expression (control = 1.0) [2]: 1.9

Structure (SMILES): COc1ccccc1C(=O)Nc1ccccc1C(=O)Nc1cccc(SC(F)(F)F)c1 [Compound 158]
- EC50 [1, 6]: 523 nM

Structure (SMILES): COc1ccccc1C(=O)Nc1ccccc1C(=O)Nc1cccc(S(=O)(=O)C(F)(F)F)c1 [Compound 159, 2-Methoxy-N-(2-((3-((trifluoromethyl)sulfonyl)phenyl)carbamoyl)phenyl)benzamide]
- EC50 [1, 6]: 358 nM

- Emax [3, 7]: 74%
Structure (SMILES): O=C(Nc1ccc(F)cc1)c1ccccc1NC(=O)C1CCCCC1 [Example 13]

- Emax [3, 7]: 85%
Structure (SMILES): C#Cc1cccc(NC(=O)c2ccccc2NC(=O)C2CCCCC2)c1 [Example 21]

- Emax [3, 7]: 45%
Structure (SMILES): O=C(NCc1ccco1)c1ccccc1NC(=O)c1ccccc1NC(=O)C1CCCCC1 [Example 44]

Structure (SMILES): CC(=O)Nc1ccccc1C(=O)Nc1cccc(C(F)(F)F)c1 [Example 47]
- Emax ([3]; read-out: Max Response): 51%

- Emax [3, 7]: 70%
Structure (SMILES): O=C(Nc1cccc(C(F)(F)F)c1)c1ccccc1NC(=O)c1ccccc1C(F)(F)F [Example 70]

- Emax [3, 7]: 80%
Structure (SMILES): O=C(Nc1ccccc1C(=O)Nc1cccc(C(F)(F)F)c1)c1ccccc1I [Example 86]

Structure (SMILES): CCOc1ccccc1C(=O)Nc1ccccc1C(=O)Nc1cccc(C(F)(F)F)c1 [Example 99]
- Emax ([4]; 0.5 h, read-out: RXFP2 AC50 (μM, Max. Resp.): Max. Resp.): 47%
- AC50 ([4]; HEK293-RXFP2 cells, inactive = Maximum response less than 30%, read-out: RXFP2 AC50 (μM, Max. Resp.): AC50): 9.4 µM
- solubility [5]: 1.7 µM (≈ 0.728 µg/mL)
- AC50 ([3]; Table 10, read-out: RXFP1 AC50 (μM, Max. Resp.): AC50): 0.297 µM
- Emax [3, 7]: 94%
- Emax [3, 8]: 95%

- Emax [3, 7]: 31%
Structure (SMILES): CCOc1ccccc1C(=O)Nc1ccccc1-c1nc2cc(C(F)(F)F)ccc2[nH]1 [Example 141]

- Emax [3, 7]: 36%
Structure (SMILES): CCOc1ccccc1-c1nc2ccccc2c(=O)n1-c1cccc(-c2nnn[nH]2)c1 [Example 143]

Structure (SMILES): COc1ccccc1C(=O)Nc1ccccc1C(=O)Nc1cccc(S(=O)(=O)C(F)(F)F)c1 [Example 159]
- Emax ([3]; read-out: Max Response): 99%
- Emax [3, 8]: 99%

- AC50 [3, 9]: 11.8 µM
- Emax [3, 7]: 72%
Structure (SMILES): CCOc1ccccc1C(=O)Nc1ccccc1C(=O)Nc1cncc(I)c1 [Example 165]

- AC50 [3, 9]: 1.49 µM
- Emax [3, 7]: 91%
Structure (SMILES): C/C=C\c1cccc(NC(=O)c2ccccc2NC(=O)c2ccccc2OCC)c1 [Example 169]

- Emax [3, 7]: 95%
Structure (SMILES): CCSc1ccccc1C(=O)Nc1ccccc1C(=O)Nc1cccc(S(=O)(=O)C(F)(F)F)c1 [Example 176]

Structure (SMILES): O=C(Nc1cccc(S(=O)(=O)C(F)(F)F)c1)c1ccccc1NC(=O)c1ccccc1OCC(F)(F)F [Example 177, 2-(2,2,2-Trifluoroethoxy)-N-(2-((3-((trifluoromethyl)sulfonyl)phenyl)carbamoyl)phenyl)benzamide]
- EC50 ([1]; THP-1, 0.5 h): 107 nM

Structure (SMILES): O=C(Nc1cccc(S(=O)(=O)C(F)(F)F)c1)c1ccccc1NC(=O)c1ccccc1OCC(F)(F)F [Example 177]
- Emax ([3]; read-out: Max Response): 97%
- Emax [3, 8]: 97%

Structure (SMILES): CC(C)Oc1ccccc1C(=O)Nc1ccccc1C(=O)Nc1cccc(S(=O)(=O)C(F)(F)F)c1 [Example 178, 2-Isopropoxy-N-(2-(3-(trifluoromethylsulfonyl)phenylcarbamoyl)phenyl)benzamide]
- EC50 [1, 6]: 200 nM

Structure (SMILES): CCCOc1ccccc1C(=O)Nc1ccccc1C(=O)Nc1cccc(S(=O)(=O)C(F)(F)F)c1 [Example 179, 2-Propoxy-N-(2-((3-((trifluoromethyl)sulfonyl)phenyl)carbamoyl)phenyl)benzamide]
- EC50 ([1]; THP-1, 0.5 h): 105 nM
- Relative VEGF gene expression (control = 1.0) [2]: 1.5

Structure (SMILES): CCCCOc1ccccc1C(=O)Nc1ccccc1C(=O)Nc1cccc(S(=O)(=O)C(F)(F)F)c1 [Example 180, 2-Butoxy-N-(2-((3-((trifluoromethyl)sulfonyl)phenyl)carbamoyl)phenyl)benzamide]
- EC50 ([1]; THP-1, 0.5 h): 124 nM

Structure (SMILES): CCCCOc1ccccc1C(=O)Nc1ccccc1C(=O)Nc1cccc(S(=O)(=O)C(F)(F)F)c1 [Example 180]
- Emax ([3]; read-out: Max Response): 98%
- Emax [3, 8]: 98%
